Assay: Trained sensory panel rating of sweetness intensity and bitterness intensity of glycoside solutions
Assay type: in vivo, human
Conditions: panel average; for Bitterness: scale 1-15 (caffeine standards); for Sweetness: scale 1-15 (sucrose standards)
Protocol: A 20 person sensory panel was trained to scale sweetness and bitterness. Reference tasting standards were prepared by dissolving respective standard material (sucrose for sweetness and caffeine for bitterness) into reverse osmosis water according to the scale values shown in Table 1 below.
The trained sensory panel evaluated pure and blended solutions of rebaudioside A, rebaudioside B, and rebaudioside D at ratios and concentrations shown in the tables and in FIGS. 1-4. Solutions were made in Evian® water. All solutions were heated to 47° C. for 10 minutes to ensure that all the glycoside material was completely dissolved. The solutions were allowed to cool to room temperature before serving to the panelists. Each solution was given a random 3-digit code and was served to the panelists in random order. Panelists dispensed 1 mL of each solution into their mouths from a pipette. The panelists were then asked to rate the “sweetness intensity” and “bitterness intensity” of the solutions and mark their responses on an un-anchored, 15 cm line ballot. The length of the line directly corresponded to the scale values (1-15) on which the participants were trained.
In order to prepare the panelists' palates, a control solution of commercial rebiana (300 ppm) was the first sample each panelist tasted during a sitting. In between testing samples, the panelists cleansed their palates with water and apple slices. The panelists also waited 5 minutes between each sample. The panelists' responses were measured, compiled, and averaged for each sample.
The figures show the concentration of the blend tested (ppm) as well as the ratio of one glycoside to another in the blend as a percentage. Each blend's sweetness and bitterness was measured by the trained panel. The blend's sweetness is measured as SEV.
Each blend was then compared to an isosweet concentration of the pure glycosides. This value represents the concentration of the pure glycoside needed to achieve the SEV value measured for the blend. Thus, if the value is greater than that of the blend, then a larger concentration of the pure glycoside would be needed to achieve the same sweetness as achieved by the blend (at the lower dosage). The tables also include an isosweet bitterness value for each pure glycoside. This value represents the intensity of bitterness measured for that concentration of pure glycoside. The concentration of the isosweet solution of rebaudioside A, rebaudioside B, or rebaudioside D and the bitterness of the isosweet solutions were calculated by a fit of the pure component sensory response (table 2) to standard psycho-sensory models.

Compound | Bitterness (114 ppm in Evian water) | Sweetness (114 ppm in Evian water) | Bitterness (229 ppm in Evian water) | Sweetness (229 ppm in Evian water) | Bitterness (343 ppm in Evian water) | Sweetness (343 ppm in Evian water) | Bitterness (457 ppm in Evian water) | Sweetness (457 ppm in Evian water) | Bitterness (571 ppm in Evian water) | Sweetness (571 ppm in Evian water) | Bitterness (800 ppm in Evian water) | Sweetness (800 ppm in Evian water) | Bitterness (57 ppm in Evian water) | Sweetness (57 ppm in Evian water) | Bitterness (171 ppm in Evian water) | Sweetness (171 ppm in Evian water) | Bitterness (286 ppm in Evian water) | Sweetness (286 ppm in Evian water) | Bitterness (400 ppm in Evian water) | Sweetness (400 ppm in Evian water)
C=C1C[C@@]23CC[C@H]4[C@@](C)(CCC[C@@]4(C)C(=O)O[C@@H]4O[C@H](CO)[C@@H](O)[C@H](O)[C@H]4O)[C@@H]2CC[C@]1(O[C@@H]1O[C@H](CO)[C@@H](O)[C@H](O[C@@H]2O[C@H](CO)[C@@H](O)[C@H](O)[C@H]2O)[C@H]1O[C@@H]1O[C@H](CO)[C@@H](O)[C@H](O)[C@H]1O)C3 [Reb A, Rebaudioside A] | 4.2 | 3.1 | 5.3 | 5.7 | 6.6 | 7.4 | 7.0 | 8.4 | 8.4 | 9.2 | 9.0 | 10.1 | – | – | – | – | – | – | – | –
C=C1C[C@@]23CC[C@H]4[C@@](C)(CCC[C@@]4(C)C(=O)O)[C@@H]2CC[C@]1(O[C@@H]1O[C@H](CO)[C@@H](O)[C@H](O[C@@H]2O[C@H](CO)[C@@H](O)[C@H](O)[C@H]2O)[C@H]1O[C@@H]1O[C@H](CO)[C@@H](O)[C@H](O)[C@H]1O)C3 [Reb B, Rebaudioside B] | 4.2 | 2.7 | – | – | 5.1 | 6.5 | – | – | – | – | – | – | 3.9 | 1.8 | 4.3 | 3.6 | 5.0 | 5.8 | 5.8 | 7.6

— patent US20130309389A1, “GLYCOSIDE BLENDS” (CARGILL, INCORPORATED, priority 2010, published 2013)
